Assay results taken from patent US10174032B2, “Heterocyclic compound classes for signaling modulation” (SignalRx Pharmaceuticals, Inc., priority 2014, dated 2019).

How the values were obtained:
Format in all cases: biochemical
mTOR = mTOR (Homo sapiens, UniProt P42345); test: Kinase inhibition assay, P-33 labelled ATP phosphate transfer, mTOR; conditions: for inhibition at 0.3 µM: read-out: mTOR(% Inh at 300 nM); for inhibition at 10 µM: read-out: mTOR(% Inh at 10 μM)
Description: (§1) The assays determined the amount of radioactive phosphate transferred from P-33 labelled ATP to the substrate by the enzyme in the presence of various concentrations of the inhibitor test compounds. […] After this time period the cells were serum starved for 5 hours followed by application of the test compound. Test compound was added as a DMSO (dimethyl sulfoxide) solution such that the final DMSO concentration in the cell media was less than or equal to 0.2% by volume. After 30 minutes of exposure the growth factor stimulant, human IGF-1 (Pepro Tech, Inc., Rocky Hill, N.J., Cat.#100-11), was added in each well. […] A SpectraMax Plus spectrophotometric plate reader (Molecular Devices, Sunnydale, Calif.) was used to measure the optical density signal for pAKT at 450 nm (OD450 nm). The pAKT OD450 nm readings were normalized by total protein amount in the cell lysates determined by standard methods. Concentrations of test compounds required to inhibit IGF stimulated pAKT levels to 50% of maximum levels in PC3 cells (termed DM50 for decreased maximum 50%) were calculated by inputting the dose responses in the software package GraphPad Prism4 (GraphPad Software, Inc., San Diego, Calif.).

PI3K-alpha = PI3K-alpha (Homo sapiens, UniProt P42336); test: Kinase inhibition assay, P-33 labelled ATP phosphate transfer, PI3K-alpha; conditions: read-out: PI3K-alpha (% Inh at 300 nM)
Description: as §1

DNA-PK = DNA-PK (Homo sapiens, UniProt P78527); test: Kinase inhibition assay, P-33 labelled ATP phosphate transfer, DNA-PK; conditions: for inhibition at 0.3 µM: read-out: DNA-PK(% Inh at 300 nM)
Description: as §1

PIM-1 = PIM-1 (Homo sapiens, UniProt P11309); test: Kinase inhibition assay, P-33 labelled ATP phosphate transfer, PIM-1; conditions: for inhibition at 0.3 µM: read-out: PIM-1(% Inh at 300 nM); for inhibition at 10 µM: read-out: PIM-1(% Inh at 10 μM)
Description: as §1

PLK-1 = PLK-1 (Homo sapiens, UniProt P53350); test: Kinase inhibition assay, P-33 labelled ATP phosphate transfer, PLK-1; conditions: for inhibition at 0.3 µM: read-out: PLK-1(% Inh at 300 nM); for inhibition at 10 µM: read-out: PLK-1(% Inh at 10 μM)
Description: as §1

PI3K-delta = PI3K-delta (Homo sapiens, UniProt O00329); test: Kinase inhibition assay, P-33 labelled ATP phosphate transfer, PI3K-delta; conditions: for inhibition at 0.3 µM: read-out: PI3K-delta(% Inh at 300 nM); for inhibition at 10 µM: read-out: PI3K-delta(% Inh at 10 μM)
Description: as §1

PI3K-gamma = PI3K-gamma (Homo sapiens, UniProt P48736); test: Kinase inhibition assay, P-33 labelled ATP phosphate transfer, PI3K-gamma; conditions: for inhibition at 0.3 µM: read-out: PI3K-gamma(% Inh at 300 nM); for inhibition at 10 µM: read-out: PI3K-gamma(% Inh at 10 μM)
Description: as §1

PI3K-beta = PI3K-beta (Homo sapiens, UniProt P42338); test: Kinase inhibition assay, P-33 labelled ATP phosphate transfer, PI3K-beta; conditions: for inhibition at 0.3 µM: read-out: PI3K-beta(% Inh at 300 nM); for inhibition at 10 µM: read-out: PI3K-beta(% Inh at 10 μM)
Description: as §1

PLK-1, sequence (P53350 whole entry, species assumed): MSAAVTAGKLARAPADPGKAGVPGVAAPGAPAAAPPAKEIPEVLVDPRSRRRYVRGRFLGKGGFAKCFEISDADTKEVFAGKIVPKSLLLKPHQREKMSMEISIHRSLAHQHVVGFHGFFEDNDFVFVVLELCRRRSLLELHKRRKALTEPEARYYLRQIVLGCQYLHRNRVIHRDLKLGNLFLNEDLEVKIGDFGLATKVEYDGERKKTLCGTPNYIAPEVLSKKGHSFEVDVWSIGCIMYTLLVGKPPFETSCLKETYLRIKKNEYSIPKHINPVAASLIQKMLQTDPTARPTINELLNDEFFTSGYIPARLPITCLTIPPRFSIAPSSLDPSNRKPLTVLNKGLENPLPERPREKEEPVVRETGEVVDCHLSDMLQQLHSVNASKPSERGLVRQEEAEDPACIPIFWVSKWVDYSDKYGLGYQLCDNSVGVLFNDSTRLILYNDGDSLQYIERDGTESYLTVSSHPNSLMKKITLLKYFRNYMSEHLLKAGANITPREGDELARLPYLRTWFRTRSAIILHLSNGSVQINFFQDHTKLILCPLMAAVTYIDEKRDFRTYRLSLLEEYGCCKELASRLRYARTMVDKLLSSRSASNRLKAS
PI3K-gamma, sequence (P48736 whole entry, species assumed): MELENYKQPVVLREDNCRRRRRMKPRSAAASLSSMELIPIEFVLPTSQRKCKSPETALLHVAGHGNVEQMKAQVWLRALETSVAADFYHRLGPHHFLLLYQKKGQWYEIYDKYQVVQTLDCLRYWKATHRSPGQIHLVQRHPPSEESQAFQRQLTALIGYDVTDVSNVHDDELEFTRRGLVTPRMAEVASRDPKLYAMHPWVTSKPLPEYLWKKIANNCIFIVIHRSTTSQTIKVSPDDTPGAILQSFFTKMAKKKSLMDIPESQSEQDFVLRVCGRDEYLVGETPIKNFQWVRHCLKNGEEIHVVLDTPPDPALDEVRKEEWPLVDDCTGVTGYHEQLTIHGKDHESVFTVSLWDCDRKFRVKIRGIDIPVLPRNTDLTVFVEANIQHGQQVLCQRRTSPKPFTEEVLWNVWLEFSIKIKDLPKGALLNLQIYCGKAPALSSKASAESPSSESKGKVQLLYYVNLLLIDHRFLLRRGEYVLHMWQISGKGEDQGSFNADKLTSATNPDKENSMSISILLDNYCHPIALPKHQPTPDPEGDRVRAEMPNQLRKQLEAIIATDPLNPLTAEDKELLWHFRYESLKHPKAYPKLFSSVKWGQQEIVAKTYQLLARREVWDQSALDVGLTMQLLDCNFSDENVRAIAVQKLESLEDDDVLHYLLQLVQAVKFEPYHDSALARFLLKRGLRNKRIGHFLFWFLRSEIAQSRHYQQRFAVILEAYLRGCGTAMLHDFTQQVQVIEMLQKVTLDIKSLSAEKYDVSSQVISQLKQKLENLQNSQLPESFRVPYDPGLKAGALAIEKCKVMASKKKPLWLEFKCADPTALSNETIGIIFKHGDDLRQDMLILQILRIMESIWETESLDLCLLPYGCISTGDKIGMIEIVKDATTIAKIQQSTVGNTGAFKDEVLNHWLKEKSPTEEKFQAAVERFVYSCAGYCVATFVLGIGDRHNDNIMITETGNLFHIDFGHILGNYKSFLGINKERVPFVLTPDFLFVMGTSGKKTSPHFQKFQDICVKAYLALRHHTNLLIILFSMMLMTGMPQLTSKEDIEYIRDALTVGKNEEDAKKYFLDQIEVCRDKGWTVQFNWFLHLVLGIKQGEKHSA
PIM-1, sequence (P11309 whole entry, species assumed): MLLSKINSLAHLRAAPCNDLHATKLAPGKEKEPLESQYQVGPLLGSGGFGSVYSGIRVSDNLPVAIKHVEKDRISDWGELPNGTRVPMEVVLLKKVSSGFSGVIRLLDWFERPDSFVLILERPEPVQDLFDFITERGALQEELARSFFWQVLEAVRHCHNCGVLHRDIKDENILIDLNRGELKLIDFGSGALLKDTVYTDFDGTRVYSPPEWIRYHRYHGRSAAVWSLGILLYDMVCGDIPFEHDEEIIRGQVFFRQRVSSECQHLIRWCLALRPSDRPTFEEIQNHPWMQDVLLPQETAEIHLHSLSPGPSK
PI3K-alpha, sequence (P42336 whole entry, species assumed): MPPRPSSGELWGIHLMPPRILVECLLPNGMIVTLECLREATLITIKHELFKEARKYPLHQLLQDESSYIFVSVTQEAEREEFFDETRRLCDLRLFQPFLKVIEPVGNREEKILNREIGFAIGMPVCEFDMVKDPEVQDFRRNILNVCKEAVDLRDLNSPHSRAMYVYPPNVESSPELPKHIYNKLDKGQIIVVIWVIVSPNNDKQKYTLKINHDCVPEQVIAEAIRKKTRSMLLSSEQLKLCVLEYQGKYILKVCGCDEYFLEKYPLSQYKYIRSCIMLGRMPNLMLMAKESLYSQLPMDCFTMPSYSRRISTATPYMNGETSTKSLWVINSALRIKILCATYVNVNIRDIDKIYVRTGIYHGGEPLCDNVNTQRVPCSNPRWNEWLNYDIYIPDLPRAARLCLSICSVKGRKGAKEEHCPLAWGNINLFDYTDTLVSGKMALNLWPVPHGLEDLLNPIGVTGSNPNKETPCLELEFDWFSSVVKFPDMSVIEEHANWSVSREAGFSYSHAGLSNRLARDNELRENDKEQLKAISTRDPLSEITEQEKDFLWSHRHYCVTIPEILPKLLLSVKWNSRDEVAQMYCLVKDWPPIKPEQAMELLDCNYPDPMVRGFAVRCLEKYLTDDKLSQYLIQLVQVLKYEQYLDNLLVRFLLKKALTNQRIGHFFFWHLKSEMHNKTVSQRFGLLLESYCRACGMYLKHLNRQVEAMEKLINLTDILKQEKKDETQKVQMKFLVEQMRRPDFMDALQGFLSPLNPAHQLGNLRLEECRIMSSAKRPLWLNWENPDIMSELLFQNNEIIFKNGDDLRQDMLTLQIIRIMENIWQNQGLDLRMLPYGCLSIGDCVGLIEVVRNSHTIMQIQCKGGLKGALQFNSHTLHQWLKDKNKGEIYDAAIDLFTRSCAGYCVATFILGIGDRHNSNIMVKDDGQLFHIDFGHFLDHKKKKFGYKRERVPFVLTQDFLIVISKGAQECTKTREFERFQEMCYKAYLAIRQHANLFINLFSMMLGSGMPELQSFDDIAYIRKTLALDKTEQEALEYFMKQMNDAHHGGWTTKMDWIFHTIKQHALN
PI3K-alpha, sequence (P27986 whole entry partner, species assumed): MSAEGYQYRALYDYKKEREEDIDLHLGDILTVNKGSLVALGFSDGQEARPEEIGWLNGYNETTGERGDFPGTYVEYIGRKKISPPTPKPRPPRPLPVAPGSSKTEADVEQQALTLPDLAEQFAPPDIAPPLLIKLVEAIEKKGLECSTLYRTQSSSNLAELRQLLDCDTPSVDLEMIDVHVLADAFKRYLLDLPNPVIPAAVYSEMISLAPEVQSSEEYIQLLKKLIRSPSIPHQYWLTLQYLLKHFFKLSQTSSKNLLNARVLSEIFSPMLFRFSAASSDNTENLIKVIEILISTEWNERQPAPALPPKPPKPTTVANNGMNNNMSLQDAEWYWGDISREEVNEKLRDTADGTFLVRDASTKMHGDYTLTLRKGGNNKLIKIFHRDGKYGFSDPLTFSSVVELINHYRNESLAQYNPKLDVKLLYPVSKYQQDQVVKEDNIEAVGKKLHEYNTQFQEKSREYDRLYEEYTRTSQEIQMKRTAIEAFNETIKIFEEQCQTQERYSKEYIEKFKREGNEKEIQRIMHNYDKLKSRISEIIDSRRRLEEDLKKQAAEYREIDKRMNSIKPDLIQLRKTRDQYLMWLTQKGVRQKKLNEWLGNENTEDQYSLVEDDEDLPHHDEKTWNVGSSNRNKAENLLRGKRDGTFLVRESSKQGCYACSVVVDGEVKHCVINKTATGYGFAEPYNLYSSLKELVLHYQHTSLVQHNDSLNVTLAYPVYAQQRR
PI3K-beta, sequence (P42338 whole entry, species assumed): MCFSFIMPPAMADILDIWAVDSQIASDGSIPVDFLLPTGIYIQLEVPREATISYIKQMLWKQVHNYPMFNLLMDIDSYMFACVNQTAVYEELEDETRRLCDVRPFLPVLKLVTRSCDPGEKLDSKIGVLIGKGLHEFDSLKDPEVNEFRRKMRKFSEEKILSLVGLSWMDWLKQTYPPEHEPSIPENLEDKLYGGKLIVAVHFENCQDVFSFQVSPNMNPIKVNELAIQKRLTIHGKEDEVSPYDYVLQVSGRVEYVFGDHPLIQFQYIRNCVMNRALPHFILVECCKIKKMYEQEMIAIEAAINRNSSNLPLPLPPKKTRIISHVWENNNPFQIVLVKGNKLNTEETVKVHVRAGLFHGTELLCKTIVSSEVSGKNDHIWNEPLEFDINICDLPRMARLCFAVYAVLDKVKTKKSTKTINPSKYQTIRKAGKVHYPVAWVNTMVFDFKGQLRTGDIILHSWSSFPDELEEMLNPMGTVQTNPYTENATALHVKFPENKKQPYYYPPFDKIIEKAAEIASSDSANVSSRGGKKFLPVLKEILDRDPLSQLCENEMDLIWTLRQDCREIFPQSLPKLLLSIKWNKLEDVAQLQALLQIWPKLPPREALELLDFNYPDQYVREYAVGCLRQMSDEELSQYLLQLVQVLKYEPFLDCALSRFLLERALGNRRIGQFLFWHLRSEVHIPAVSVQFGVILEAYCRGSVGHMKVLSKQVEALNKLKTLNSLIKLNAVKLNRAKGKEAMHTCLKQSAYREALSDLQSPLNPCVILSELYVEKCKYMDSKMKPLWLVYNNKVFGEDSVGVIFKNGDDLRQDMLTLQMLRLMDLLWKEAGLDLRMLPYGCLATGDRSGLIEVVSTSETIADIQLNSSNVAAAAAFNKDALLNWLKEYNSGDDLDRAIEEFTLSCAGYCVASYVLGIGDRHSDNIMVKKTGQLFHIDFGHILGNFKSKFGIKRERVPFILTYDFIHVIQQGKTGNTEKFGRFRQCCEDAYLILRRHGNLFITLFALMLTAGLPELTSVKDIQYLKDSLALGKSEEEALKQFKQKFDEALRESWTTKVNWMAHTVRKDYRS
PI3K-beta, sequence (P27986 whole entry partner, species assumed): as the sequence (P27986 whole entry partner, species assumed) above

Row | inhibition at 0.3 µM (mTOR) [%] | inhibition at 0.3 µM (PI3K-alpha) [%] | inhibition at 0.3 µM (DNA-PK) [%] | inhibition at 0.3 µM (PIM-1) [%] | inhibition at 0.3 µM (PLK-1) [%] | inhibition at 0.3 µM (PI3K-delta) [%] | inhibition at 0.3 µM (PI3K-gamma) [%] | inhibition at 0.3 µM (PI3K-beta) [%] | inhibition at 10 µM (mTOR) [%] | IC50 (DNA-PK) [µM] | inhibition at 10 µM (PIM-1) [%] | inhibition at 10 µM (PLK-1) [%] | inhibition at 10 µM (PI3K-delta) [%] | inhibition at 10 µM (PI3K-gamma) [%] | inhibition at 10 µM (PI3K-beta) [%] | SMILES
1 | 0 | 7 | 0 | 0 | 0 | 0 | 0 | 0 |  |  |  |  |  |  |  | Cc1nc2c(=O)nc(N3CCOCC3)[nH]c2n1Cc1ccccc1 [Compound 29]
2 | 0 | 0 |  |  | 0 | 0 |  |  |  |  |  |  |  |  |  | COc1ccc(C#Cc2csc3c(=O)nc(N4CCOCC4)oc23)cc1 [Compound 20]
3 | 0 | 7.5 | 0 | 0 | 0 | 8.7 | 7.5 | 2.5 |  |  |  |  |  |  |  | Cc1nc2c(=O)nc(N3CCOCC3)[nH]c2n1-c1ccc2[nH]ccc2c1 [Compound 31]
4 |  | 9 |  |  |  |  |  |  | 0.5 | 24 | 1.5 | 3.3 | 26 | 0.6 | 14 | O=c1nc(N2CCOCC2)[nH]c2c1cnn2CCO [Compound 26]
5 | 0 | 0 | 0 | 0 | 0 | 15 | 1 | 0 |  |  |  |  |  |  |  | Cc1ccc(-n2c(C)nc3c(=O)nc(N4CCOCC4)[nH]c32)cc1 [Compound 32]
6 |  | 6.9 |  |  |  |  |  |  |  |  |  |  | 0 |  |  | O=c1nc(N2CCOCC2)[nH]c2c1cnn2-c1ccc(Cl)cc1 [Compound 28]
7 |  | 2 |  |  |  |  |  |  | 11 | 24 | 3.2 | 3.4 | 18 | 4.8 | 9.2 | O=c1nc(N2CCOCC2)[nH]c2c1cnn2C1CCCCC1 [Compound 8, 1-cyclohexyl-6-morpholino-1H-pyrazolo[3,4-d]pyrimidin-4(7H)-one]
8 |  | 6.6 |  |  |  |  |  |  | 0 | 24 | 9.4 | 2.6 | 10 | 35 | 4.7 | O=c1nc(N2CCOCC2)[nH]c2c1cnn2-c1ccccn1 [Compound 25]
9 | 0 | 2.6 | 0 | 0 | 0 | 32 | 0 | 0 |  |  |  |  |  |  |  | Cc1nc2c(=O)nc(N3CCOCC3)[nH]c2n1-c1ccccc1 [Compound 11, 8-methyl-2-morpholino-9-phenyl-3H-purin-6(9H)-one]
10 | 3 | 15 |  |  | 0 | 0 |  |  |  |  |  |  |  |  |  | O=c1nc(N2CCOCC2)oc2c(-c3ccoc3)csc12 [Compound 19]
11 | 0 | 4.7 | 0 | 0 | 0 | 32 | 3 | 14 |  |  |  |  |  |  |  | Cc1nc2c(=O)nc(N3CCOCC3)[nH]c2n1-c1ccc(F)cc1 [Compound 30]
12 |  | 6.6 |  |  |  |  |  |  | 0 | 24 | 2.1 | 4.9 | 0 | 15 | 14 | O=c1nc(N2CCOCC2)[nH]c2c1cnn2Cc1ccccc1 [Compound 23]
13 | 0 | 19 |  |  | 0 | 27 |  |  |  |  |  |  |  |  |  | COc1ccc(-c2csc3c(=O)nc(N4CCOCC4)oc23)cc1 [Compound 14]
14 | 0 | 0 |  |  | 0 | 0 |  |  |  |  |  |  |  |  |  | O=c1nc(N2CCOCC2)oc2c(-c3cccnc3)csc12 [Compound 18]
